Patent US8097443B2, “Nucleotidyltransferases with enhanced nucleotide triphosphate flexibility” (priority 2007, dated 2012)
Where two headings read alike, the source gives them in different places.

Experiments:
[1] = biological target: T1, RmlA Q83S (Salmonella typhimurium, UniProt P26393, Q83S); experiment: Relative activity of RmlA mutant Q83S with alternative NTPs; format: biochemical, Salmonella enterica typhimurium LT2; conditions: 10 mM Glucose-1-phosphate, 0.1-10 μM enzyme, 5 mM NTP, 10 mM MgCl2, pH 8.0, 37° C.
T1 construct: His6 (pET28a) (N); made in house; host or cells: Escherichia coli BL21 (DE3)
T1 sequence (P26393 whole entry Q83S): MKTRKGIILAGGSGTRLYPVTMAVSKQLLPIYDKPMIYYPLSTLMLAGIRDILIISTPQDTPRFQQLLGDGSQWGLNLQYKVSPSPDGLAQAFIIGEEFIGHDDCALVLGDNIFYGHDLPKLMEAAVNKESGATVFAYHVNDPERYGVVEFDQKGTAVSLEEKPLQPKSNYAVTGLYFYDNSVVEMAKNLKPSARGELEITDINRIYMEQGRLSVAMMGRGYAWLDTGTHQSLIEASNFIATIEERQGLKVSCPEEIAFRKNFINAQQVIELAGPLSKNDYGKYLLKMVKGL
Source text: (§1) RmlA mutagenesis—RmlA mutants were generated with the Quikchange mutagenesis kit (Stratagene, La Jolla, Calif., USA) using the wt RmlA-pET28a parent expression plasmid as the template and the primers indicated in Table 1. Individual progeny plasmids were confirmed by DNA sequencing to carry the desired mutations. Driven by these mutant plasmids, the corresponding RmlA variants were subsequently expressed and purified as described above.
(§2) Enzymatic Reactions—The enzyme assay was accomplished via slight modification of previously reported methods (Jiang et al. (2000) J. Am. Chem. Soc. 122, 6803-6804; Jiang et al. (2001) Angew. Chem., Int. Ed. 40, 1502-1505; Jiang et al. (2003) Chem Bio Chem 4, 443-446; Barton et al. (2002) Proc. Natl. Acad. Sci. U.S.A. 99, 13397-13402). In a typical reaction, sugar-1-phosphate (10 mM final) and enzyme (0.01-50 μM) were mixed with NTP (0.01-40 mM) in the presence of MgCl2 ([NTP]+5 mM) and 10 U/mL inorganic pyrophosphatase (Sigma, St. Louis, Mo., USA) in 100 mM Tris HCl, pH 8.0 (20 μL final volume). Typical reactions were analyzed after 10 min at 37° C. and reaction times were extended for some slow reacting sugar/NTP combinations. Reactions were stopped by the addition of 80 μL prewarmed HPLC buffer and heat inactivation (95° C., 5 min). The amount of enzyme used and the incubation time was adjusted so that the reactions never proceeded to more than 10% turnover for kinetics, or 30% for activity assays.
(§3) Product Characterization—Reactions were analyzed via analytical HPLC (Supelcosil LC18-T; Supelco, Bellefonte, Pa.; 5 μm, 250×3 mm, 40 mM phosphoric acid, pH 6.5 with triethylamine, with a gradient of 0-10% MeOH over 20 min, 0.8 mL/min, A254). Due to earlier elution, a 5 min 0% MeOH isocratic hold was performed prior to starting the gradient for CTP-containing reactions. For nucleotide sugar products with commercially available standards, HPLC peak identity was confirmed by co-elution.

[2] = biological target: T2, RmlA Q83N (Salmonella typhimurium, UniProt P26393, Q83N); experiment: Relative activity of RmlA mutant Q83N with alternative NTPs; format: biochemical, Salmonella enterica typhimurium LT2; conditions: 10 mM Glucose-1-phosphate, 0.1-10 μM enzyme, 5 mM NTP, 10 mM MgCl2, pH 8.0, 37° C.
T2 construct: His6 (pET28a) (N); made in house; host or cells: Escherichia coli BL21 (DE3)
T2 sequence (P26393 whole entry Q83N): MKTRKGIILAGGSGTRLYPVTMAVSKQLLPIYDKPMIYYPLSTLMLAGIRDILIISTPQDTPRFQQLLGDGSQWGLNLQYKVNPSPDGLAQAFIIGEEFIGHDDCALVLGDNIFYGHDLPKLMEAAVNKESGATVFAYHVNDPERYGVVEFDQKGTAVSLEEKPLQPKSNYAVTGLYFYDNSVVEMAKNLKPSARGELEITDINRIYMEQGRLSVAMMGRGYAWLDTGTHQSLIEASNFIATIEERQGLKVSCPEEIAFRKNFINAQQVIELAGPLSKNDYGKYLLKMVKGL
Source text: as §1, §2, §3

[3] = biological target: T3, RmlA Q83D (Salmonella typhimurium, UniProt P26393, Q83D); experiment: Relative activity of RmlA mutant Q83D with alternative NTPs; format: biochemical, Salmonella enterica typhimurium LT2; conditions: 10 mM Glucose-1-phosphate, 0.1-10 μM enzyme, 5 mM NTP, 10 mM MgCl2, pH 8.0, 37° C.
T3 construct: using BSA as a standard, and a molecular mass of 34.6 kDa; His6 (pET28a) (N); made in house; host or cells: Escherichia coli BL21 (DE3)
T3 sequence (P26393 whole entry Q83D): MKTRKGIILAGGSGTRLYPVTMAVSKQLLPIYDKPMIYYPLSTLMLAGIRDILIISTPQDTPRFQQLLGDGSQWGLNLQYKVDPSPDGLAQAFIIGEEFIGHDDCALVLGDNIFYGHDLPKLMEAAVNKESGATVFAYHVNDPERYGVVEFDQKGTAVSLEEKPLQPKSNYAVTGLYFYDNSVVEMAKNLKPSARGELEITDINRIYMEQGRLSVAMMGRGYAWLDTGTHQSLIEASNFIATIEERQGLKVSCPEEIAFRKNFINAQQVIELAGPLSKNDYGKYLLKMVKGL
Source text: as §1, §2, §3

[4] = biological target: wt RmlA (glucose-1-phosphate thymidylyltransferase) (Salmonella typhimurium, UniProt P26393)
wt RmlA (glucose-1-phosphate thymidylyltransferase), sequence (P26393 whole entry): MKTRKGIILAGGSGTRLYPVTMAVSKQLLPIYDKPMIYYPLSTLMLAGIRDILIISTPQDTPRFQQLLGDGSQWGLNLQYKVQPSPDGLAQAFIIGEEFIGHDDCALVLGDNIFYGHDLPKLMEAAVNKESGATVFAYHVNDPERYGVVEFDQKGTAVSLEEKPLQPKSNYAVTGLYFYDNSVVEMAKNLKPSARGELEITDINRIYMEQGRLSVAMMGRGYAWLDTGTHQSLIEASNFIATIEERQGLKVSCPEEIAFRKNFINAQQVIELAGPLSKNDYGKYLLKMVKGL
Procedure: as §2
(§4) Product Characterization—Reactions were analyzed via analytical HPLC (Supelcosil LC18-T; Supelco, Bellefonte, Pa.; 5 μm, 250×3 mm, 40 mM phosphoric acid, pH 6.5 with triethylamine, with a gradient of 0-10% MeOH over 20 min, 0.8 mL/min, A254). Due to earlier elution, a 5 min 0% MeOH isocratic hold was performed prior to starting the gradient for CTP-containing reactions.
(§5) Kinetic Measurements—Pseudo first order kinetics were obtained by fixing glucose-1-phosphate at a saturating concentration of 10 mM (Barton et al. (2001) Nat Struct Biol 8, 545-551), and titrating NTPs. At least eight different concentrations in the range of ¼×KM to 4×KM (0.09-20 mM for dTTP, 0.2-40 mM for others) were assayed in triplicate. […] Activities were corrected for time and enzyme concentrations, and the kinetic curves were fit to the Michaelis-Menton equation using SigmaPlot with the Enzyme Kinetics module (SPSS, Chicago, Ill., USA).

[5] = test system: UDP-sugar pyrophosphorylase (Usp); conditions: Thermus caldophilus Usp, literature; cited from earlier work
[6] = biological target: T4, RmlA Q83A (Salmonella typhimurium, UniProt P26393, Q83A); experiment: Relative activity of RmlA mutant Q83A with alternative NTPs; format: biochemical, Salmonella enterica typhimurium LT2; conditions: 10 mM Glucose-1-phosphate, 0.1-10 μM enzyme, 5 mM NTP, 10 mM MgCl2, pH 8.0, 37° C.
T4 construct: His6 (pET28a) (N); made in house; host or cells: Escherichia coli BL21 (DE3)
T4 sequence (P26393 whole entry Q83A): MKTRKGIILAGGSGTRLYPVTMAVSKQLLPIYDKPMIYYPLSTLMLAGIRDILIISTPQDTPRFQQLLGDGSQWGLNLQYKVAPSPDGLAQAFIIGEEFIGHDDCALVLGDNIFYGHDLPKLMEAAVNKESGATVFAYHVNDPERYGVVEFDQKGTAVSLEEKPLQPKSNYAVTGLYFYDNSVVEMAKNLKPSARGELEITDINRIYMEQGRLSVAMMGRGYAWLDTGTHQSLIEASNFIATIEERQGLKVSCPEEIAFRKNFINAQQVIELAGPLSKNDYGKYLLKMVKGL
Source text: as §1, §2, §3

[7] = biological target: ST0452 (Sulfurisphaera tokodaii, UniProt Q975F9); conditions: Sulfolobus tokodaii ST0452, literature; cited from earlier work
ST0452, sequence (Q975F9 whole entry): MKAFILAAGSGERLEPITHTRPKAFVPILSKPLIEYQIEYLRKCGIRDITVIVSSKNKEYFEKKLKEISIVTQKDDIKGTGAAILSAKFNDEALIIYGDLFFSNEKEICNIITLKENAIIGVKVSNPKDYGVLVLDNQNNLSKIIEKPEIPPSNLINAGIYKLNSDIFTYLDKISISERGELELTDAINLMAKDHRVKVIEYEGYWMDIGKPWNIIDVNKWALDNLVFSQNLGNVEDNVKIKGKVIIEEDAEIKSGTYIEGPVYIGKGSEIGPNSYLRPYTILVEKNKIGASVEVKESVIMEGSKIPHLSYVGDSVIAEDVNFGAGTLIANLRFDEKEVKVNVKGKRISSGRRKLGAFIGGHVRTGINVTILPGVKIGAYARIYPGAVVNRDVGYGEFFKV

[8] = biological target: T5, RmlA Q83E (Salmonella typhimurium, UniProt P26393, Q83E); experiment: Relative activity of RmlA mutant Q83E with alternative NTPs; format: biochemical, Salmonella enterica typhimurium LT2; conditions: 10 mM Glucose-1-phosphate, 0.1-10 μM enzyme, 5 mM NTP, 10 mM MgCl2, pH 8.0, 37° C.
T5 construct: His6 (pET28a) (N); made in house; host or cells: Escherichia coli BL21 (DE3)
T5 sequence (P26393 whole entry Q83E): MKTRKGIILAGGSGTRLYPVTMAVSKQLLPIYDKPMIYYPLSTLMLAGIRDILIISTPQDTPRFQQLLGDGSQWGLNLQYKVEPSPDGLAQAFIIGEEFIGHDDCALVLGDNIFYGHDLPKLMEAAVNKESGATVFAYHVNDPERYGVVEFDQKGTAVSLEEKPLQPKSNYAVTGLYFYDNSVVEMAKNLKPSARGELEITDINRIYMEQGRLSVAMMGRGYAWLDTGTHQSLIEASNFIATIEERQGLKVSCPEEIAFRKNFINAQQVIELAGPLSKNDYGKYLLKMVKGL
Source text: as §1, §2, §3

[9] = biological target: T3, RmlA Q83D; experiment: Pseudo first order kinetics of RmlA Q83D mutant; format: biochemical, Salmonella enterica typhimurium LT2; conditions: for kcat^app / Km: 10 mM glucose-1-phosphate, 0.05-25 μM enzyme, [NTP] + 5 mM MgCl2, 100 mM Tris-HCl pH 8.0, 37° C.; for Km: read-out: KM^app
Source text: (§6) Driven by these mutant plasmids, the corresponding RmlA variants were subsequently expressed and purified as described above.
as §2, §4, §5

[10] = biological target: T1, RmlA Q83S; experiment: Pseudo first order kinetics of RmlA Q83S mutant; format: biochemical, Salmonella enterica typhimurium LT2; conditions: 10 mM glucose-1-phosphate, 0.05-25 μM enzyme, [NTP] + 5 mM MgCl2, 100 mM Tris-HCl pH 8.0, 37° C.; for Km: read-out: KM^app
Source text: as §6, §2, §4, §5

Row | SMILES | Relative activity of Q83S as compared to wt RmlA [1] | Relative activity of Q83N as compared to wt RmlA [2] | Relative activity of Q83D as compared to wt RmlA [3] | reduction in the apparent RmlA specificity constant (kcat/KM) versus dTTP ([4]; wild-type RmlA, glucose-1-phosphate) [fold] | turnover of glucose-1-phosphate with NTP by Usp [5] | Relative activity of Q83A as compared to wt RmlA [6] | utilization of NTP by ST0452 [7] | Relative activity of Q83E as compared to wt RmlA [8] | improvement in apparent KM, Q83D versus wild-type [9] [fold] | kcat^app [9] [s⁻¹] | Km [9] [µM] | kcat^app [10] [s⁻¹] | Km [10] [µM] | reduction in the apparent RmlA specificity constant (kcat/KM) versus dTTP [4] | kcat^app ([4]; Wild-type RmlA, 10 mM glucose-1-phosphate, 0.05-25 μM enzyme, [NTP] + 5 mM MgCl2, 100 mM Tris-HCl pH 8.0, 37° C.) [s⁻¹] | Km ([4]; read-out: KM^app, Wild-type RmlA, 10 mM glucose-1-phosphate, 0.05-25 μM enzyme, [NTP] + 5 mM MgCl2, 100 mM Tris-HCl pH 8.0, 37° C.) [µM] | increase in KM, Q83D versus wild-type [9] [fold]
1 | O=c1ccn([C@@H]2O[C@H](COP(=O)(O)OP(=O)(O)OP(=O)(O)O)[C@@H](O)[C@H]2O)c(=O)[nH]1 [UTP, uridine-5′-triphosphate] | 0.2 | 0.2 | 0.2 | ~12 | turn over | 0.2 | good activity | 1.3 |  |  |  |  |  |  |  |  | 
2 | Nc1nc2c(ncn2[C@@H]2O[C@H](COP(=O)(O)OP(=O)(O)OP(=O)(O)O)[C@@H](O)[C@H]2O)c(=O)[nH]1 [GTP, guanosine-5′-triphosphate] | 2.2 | 0.2 | 3.7 |  | turn over | 0.7 | could not utilize | 2.8 | 6.5 | 0.213 ± 0.015 | 1300 ± 400 |  |  |  |  |  | 
3 | Nc1ccn([C@H]2C[C@H](O)[C@@H](COP(=O)(O)OP(=O)(O)OP(=O)(O)O)O2)c(=O)n1 [dCTP, 2′-deoxycytidine-5′-triphosphate] | 1.4 |  | 1.2 |  |  | 0.8 | good activity | 1.1 |  |  |  |  |  |  |  |  | 
4 | Nc1ncnc2c1ncn2[C@H]1C[C@H](O)[C@@H](COP(=O)(O)OP(=O)(O)OP(=O)(O)O)O1 [dATP, 2′-deoxyadenosine-5′-triphosphate] | 7.9 | 3.8 | 0.8 |  |  | 4.6 | good activity | 0.4 |  |  |  | 5.33 ± 0.333 | 1100 ± 300 |  |  |  | 
5 | Nc1nc2c(ncn2[C@H]2C[C@H](O)[C@@H](COP(=O)(O)OP(=O)(O)OP(=O)(O)O)O2)c(=O)[nH]1 [dGTP, 2′-deoxyguanosine-5′-triphosphate] | 0.6 | 0.1 | 1.6 |  |  | 0.2 | good activity | 1.7 |  | 5 ± 0.333 | 11500 ± 1800 |  |  |  |  |  | 
6 | Nc1ncnc2c1ncn2[C@@H]1O[C@H](COP(=O)(O)OP(=O)(O)OP(=O)(O)O)[C@@H](O)[C@H]1O [ATP, adenosine-5′-triphosphate] | 14.0 | 6.5 | 0.6 |  | turn over | 7.9 | could not utilize | 0.7 |  |  |  | 0.48 ± 0.0233 | 3400 ± 600 | > 15,000 fold |  |  | 
7 | Cc1cn([C@H]2C[C@H](O)[C@@H](COP(=O)(O)OP(=O)(O)OP(=O)(O)O)O2)c(=O)[nH]c1=O [dTTP, 2′deoxythymidine-5′-triphosphate] | 0.3 | 0.3 | 0.2 |  | turn over | 0.2 | good activity | 1.0 |  | 3.62 ± 0.233 | 6200 ± 1200 | 6.33 ± 0.5 | 2400 ± 600 |  | 30.83 ± 0.667 | 290 ± 40 | 21
8 | Nc1ccn([C@@H]2O[C@H](COP(=O)(O)OP(=O)(O)OP(=O)(O)O)[C@@H](O)[C@H]2O)c(=O)n1 [CTP, cytidine-5′-triphosphate] | 1.5 | 0.7 | 0.2 |  | turn over | 1.3 | could not utilize | 0.8 |  |  |  |  |  |  |  |  | 
